Experimental data: ChEMBL document CHEMBL4725457, “Novel Bicyclic Heteroaryl Compounds as γ-Secretase Modulators for Treating Alzheimer's Disease” (ACS Med Chem Lett, 2020)

The compounds below were run against Gamma-secretase (assay: Inhibition of human gamma secretase assessed as reduction in Abeta42 production).
Assay type: protein-complex assay

Row | SMILES | IC50
1 | Cc1cc(N2C[C@H]3CC[C@@H](C2)[C@@H]3Nc2nc3n(n2)CCC[C@H]3Oc2cc(F)cc(Cl)c2)ncn1 | 8.1 nM
2 | COc1cc(N2C[C@H]3CC[C@@H](C2)[C@@H]3Nc2nc3n(n2)CC[C@H]3Oc2cc(F)cc(Cl)c2)cnn1 | 8.1 nM
3 | COc1cc(N2C[C@H]3CC[C@@H](C2)[C@@H]3Nc2nc3n(n2)CCC[C@H]3Oc2cc(F)cc(Cl)c2)cnn1 | 6.3 nM

The remaining lines, values ahead:

Row | IC50 | SMILES
4 | 9.9 nM | Cc1cc(N2C[C@H]3CC[C@@H](C2)[C@@H]3Nc2nc3n(n2)CCC[C@H]3Oc2cccc(Cl)c2)ncn1
5 | 10.3 nM | Cc1cc(N2C[C@H]3CC[C@@H](C2)[C@@H]3Nc2nc3n(n2)CCC[C@H]3Oc2ccc(Cl)cc2)ncn1
6 | 6.6 nM | Cc1cc(N2C[C@H]3CC[C@@H](C2)[C@@H]3Nc2nc3n(n2)CCC[C@H]3Oc2cc(Cl)cc(Cl)c2)ncn1
